Test: xn = mol fraction of the nth substance listed
Conditions: 101 kPa, Liquid, Taylor dispersion method, x1 = 0

binary diffusion coefficient (293.2 K) [m2/s] | binary diffusion coefficient (298.2 K) [m2/s] | binary diffusion coefficient (303.2 K) [m2/s] | binary diffusion coefficient (313.2 K) [m2/s] | binary diffusion coefficient (323.2 K) [m2/s] | binary diffusion coefficient (333.2 K) [m2/s] | SMILES
7.29e-10 | 8.39e-10 | 9.48e-10 | 1.2e-09 | 1.49e-09 | 1.8e-09 | CCC(N)C(=O)O (stereo not drawn) [(.+-.)-α-aminobutyric acid] + O
6.77e-10 | 7.75e-10 | 8.79e-10 | 1.12e-09 | 1.39e-09 | 1.69e-09 | CCC[C@H](N)C(=O)O [(S)-2-aminopentanoic acid] + O
6.42e-10 | 7.38e-10 | 8.44e-10 | 1.07e-09 | 1.33e-09 | 1.61e-09 | CC[C@@H](C)[C@H](N)C(=O)O [allo-L-isoleucine] + O
9.36e-10 | 1.06e-09 | 1.22e-09 | 1.5e-09 | 1.86e-09 | 2.22e-09 | NCC(=O)O [2-aminoacetic acid] + O
6.41e-10 | 7.36e-10 | 8.27e-10 | 1.07e-09 | 1.32e-09 | 1.6e-09 | CCCCC(N)C(=O)O (stereo not given) [2-aminohexanoic acid] + O
8.06e-10 | 9.3e-10 | 1.04e-09 | 1.31e-09 | 1.63e-09 | 1.96e-09 | C[C@H](N)C(=O)O [(S)-2-aminopropanoic acid] + O
6.41e-10 | 7.44e-10 | 8.36e-10 | 1.07e-09 | 1.33e-09 | 1.62e-09 | CC[C@H](C)[C@H](N)C(=O)O [2-amino-3-methylpentanoic acid] + O
6.76e-10 | 7.77e-10 | 8.91e-10 | 1.12e-09 | 1.4e-09 | 1.7e-09 | CC(C)[C@H](N)C(=O)O [L-valine] + O
6.41e-10 | 7.35e-10 | 8.24e-10 | 1.07e-09 | 1.33e-09 | 1.6e-09 | CC(C)C[C@H](N)C(=O)O [L-leucine] + O
6.31e-10 | 7.29e-10 | 8.46e-10 | 1.06e-09 | 1.33e-09 | 1.61e-09 | CC(C)(C)C(N)C(=O)O (stereo not drawn) [DL-tert-leucine] + O

Reference: the NIST ThermoML archive (doi:10.1021/je060149b)
